Results reported in patent US20240246956A1, “CLASS IIA HISTONE DEACETYLASE (HDAC) DEGRADER LIGANDS AND METHODS OF USE THEREOF” (DANA-FARBER CANCER INSTITUTE, INC., priority 2021, published 2024).

How the values were obtained:
HDAC6 = HDAC6 (Homo sapiens, UniProt Q9UBN7); settings: FIG. 2A
Experimental: (§1) The in vitro HDAC enzymatic assays were performed by Reaction Biology (Devault, PA).

HDAC8 = HDAC8 (Homo sapiens, UniProt Q9BY41); settings: FIG. 2A
Experimental: as §1

HDAC4 = HDAC4 (Homo sapiens, UniProt P56524); test: Global quantitative proteomics, change in protein abundance in Kelly cells; assay type: cell-based; parameters: endogenous in cells; host or cells: Kelly cells; settings: 1 μM, 5-hour treatment, vs DMSO, FIG. 3
HDAC4, sequence (P56524 whole entry): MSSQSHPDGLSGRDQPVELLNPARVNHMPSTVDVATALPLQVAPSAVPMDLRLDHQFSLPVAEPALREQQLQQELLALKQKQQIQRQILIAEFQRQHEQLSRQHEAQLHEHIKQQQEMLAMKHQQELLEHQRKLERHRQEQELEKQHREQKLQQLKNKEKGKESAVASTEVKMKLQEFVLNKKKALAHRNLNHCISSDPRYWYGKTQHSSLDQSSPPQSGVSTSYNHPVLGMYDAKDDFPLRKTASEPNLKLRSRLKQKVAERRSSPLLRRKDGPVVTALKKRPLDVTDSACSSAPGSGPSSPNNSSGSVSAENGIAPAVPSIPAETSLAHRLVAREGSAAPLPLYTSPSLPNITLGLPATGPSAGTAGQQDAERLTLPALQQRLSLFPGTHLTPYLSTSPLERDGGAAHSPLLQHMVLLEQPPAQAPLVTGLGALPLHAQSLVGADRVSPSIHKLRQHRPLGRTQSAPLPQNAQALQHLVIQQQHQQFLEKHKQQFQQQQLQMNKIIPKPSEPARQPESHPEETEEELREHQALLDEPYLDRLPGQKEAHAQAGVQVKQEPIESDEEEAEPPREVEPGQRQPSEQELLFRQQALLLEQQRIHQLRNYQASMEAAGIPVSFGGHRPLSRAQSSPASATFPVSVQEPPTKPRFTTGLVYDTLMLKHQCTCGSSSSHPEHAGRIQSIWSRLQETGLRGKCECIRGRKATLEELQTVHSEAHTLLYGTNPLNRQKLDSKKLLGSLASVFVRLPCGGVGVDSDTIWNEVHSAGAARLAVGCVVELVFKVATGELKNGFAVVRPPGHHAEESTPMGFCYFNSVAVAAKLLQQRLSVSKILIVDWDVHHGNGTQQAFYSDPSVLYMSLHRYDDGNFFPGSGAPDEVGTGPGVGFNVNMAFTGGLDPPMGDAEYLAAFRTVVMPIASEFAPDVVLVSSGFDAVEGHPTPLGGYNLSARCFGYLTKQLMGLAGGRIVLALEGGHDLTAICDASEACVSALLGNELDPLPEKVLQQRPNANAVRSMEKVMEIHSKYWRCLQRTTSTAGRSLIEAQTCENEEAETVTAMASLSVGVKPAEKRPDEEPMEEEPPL
Experimental: (§2) Cells were washed once with phosphate-buffered saline (PBS), harvested with CellstripperTM (Corning®), washed two additional times with PBS and snap frozen in liquid nitrogen. […] Proteins were precipitated using methanol/chloroform in Donovan et al., Elife 7:e38430 (2018). The precipitated protein was resuspended in 4 M Urea, 50 mM HEPES pH 7.4, followed by dilution to 1 M urea with the addition of 200 mM EPPS, pH 8. Proteins were first digested with LysC (1:50: enzyme:protein) for 12 hours at room temperature. The LysC digestion was diluted to 0.5 M Urea with 200 mM EPPS pH 8 followed by digestion with trypsin (1:50: enzyme:protein) for 6 hours at 37° C. Tandem mass tag (TMT) reagents (Thermo Fisher Scientific) were dissolved in anhydrous acetonitrile (ACN) according to manufacturer's instructions. Anhydrous ACN was added to each peptide sample to a final concentration of 30% v/v, and labeling was induced with the addition of TMT reagent to each sample at a ratio of 1:4 peptide:TMT label. The 11-plex labeling reactions were performed for 1.5 hours at room temperature and the reaction quenched by the addition of hydroxylamine to a final concentration of 0.3% for 15 minutes at room temperature. The sample channels were combined at a 1:1 ratio, desalted using C18 solid phase extraction cartridges (Waters®) and analyzed by LC-MS for channel ratio comparison. Samples were then combined using the adjusted volumes determined in the channel ratio analysis and dried down in a speed vacuum. The combined sample was then resuspended in 1% formic acid, and acidified (pH 2-3) before being subjected to desalting with C18 SPE (Sep-Pak®-, Waters®). […] The 96 resulting fractions were then pooled in a non-contiguous manner into 24 fractions and these fractions were used for subsequent mass spectrometry analysis. Data were collected using an Orbitrap FusionTM LumosTM mass spectrometer (Thermo Fisher Scientific, San Jose, CA, USA) coupled with a […] pump (Thermo Fisher Scientific). Peptides were separated on an EasySprayTM ES803.rev2 75 μm inner diameter microcapillary column (ThermoFisher Scientific). Peptides were separated using a 190 min gradient of 6-27% acetonitrile in 1.0% formic acid with a flow rate of 300 nL/min. Each analysis used an MS3-based TMT method as described in McAlister et al., Anal. Chem. 86(14):7150-7158 (2014). The data were acquired using a mass range of m/z 340-1350, resolution 120,000, automatic gain control (AGC) target 1×10^6, maximum injection time 100 ms, dynamic exclusion of 120 seconds for the peptide measurements in the Orbitrap FusionTM LumosTM mass spectrometer. Data dependent MS2 spectra were acquired in the ion trap with a normalized collision energy (NCE) set at 55%, AGC target set to 1.5×10^5 and a maximum injection time of 150 ms. MS3 scans were acquired in the Orbitrap FusionTM LumosTM mass spectrometer with a higher energy collision dissociation (HCD) set to 55%, AGC target set to 1.5×10^5, maximum injection time of 150 ms, resolution at 50,000 and with a maximum synchronous precursor selection (SPS) precursors set to 10. Proteome Discoverer 2.2 (Thermo Fisher Scientific) was used for .RAW file processing and controlling peptide and protein level false discovery rates, assembling proteins from peptides, and protein quantification from peptides. MS/MS spectra were searched against a Swissprot human database (December 2016) with both the forward and reverse sequences. […] TMT reporter ion intensities were measured using a 0.003 Da window around the theoretical m/z for each reporter ion in the MS3 scan. […] Reporter ion intensities were normalized and scaled using in-house scripts in the R framework. Statistical analysis was carried out using the limma package within the R framework as described in Ritchie et al., Nucleic Acids Res. 43(7):e47 (2015).

HDAC5 = HDAC5 (Homo sapiens, UniProt Q9UQL6); test: as above; assay type: cell-based; parameters: endogenous in cells; host or cells: Kelly cells; settings: 1 μM, 5-hour treatment, vs DMSO, FIG. 3
HDAC5, sequence (Q9UQL6 whole entry): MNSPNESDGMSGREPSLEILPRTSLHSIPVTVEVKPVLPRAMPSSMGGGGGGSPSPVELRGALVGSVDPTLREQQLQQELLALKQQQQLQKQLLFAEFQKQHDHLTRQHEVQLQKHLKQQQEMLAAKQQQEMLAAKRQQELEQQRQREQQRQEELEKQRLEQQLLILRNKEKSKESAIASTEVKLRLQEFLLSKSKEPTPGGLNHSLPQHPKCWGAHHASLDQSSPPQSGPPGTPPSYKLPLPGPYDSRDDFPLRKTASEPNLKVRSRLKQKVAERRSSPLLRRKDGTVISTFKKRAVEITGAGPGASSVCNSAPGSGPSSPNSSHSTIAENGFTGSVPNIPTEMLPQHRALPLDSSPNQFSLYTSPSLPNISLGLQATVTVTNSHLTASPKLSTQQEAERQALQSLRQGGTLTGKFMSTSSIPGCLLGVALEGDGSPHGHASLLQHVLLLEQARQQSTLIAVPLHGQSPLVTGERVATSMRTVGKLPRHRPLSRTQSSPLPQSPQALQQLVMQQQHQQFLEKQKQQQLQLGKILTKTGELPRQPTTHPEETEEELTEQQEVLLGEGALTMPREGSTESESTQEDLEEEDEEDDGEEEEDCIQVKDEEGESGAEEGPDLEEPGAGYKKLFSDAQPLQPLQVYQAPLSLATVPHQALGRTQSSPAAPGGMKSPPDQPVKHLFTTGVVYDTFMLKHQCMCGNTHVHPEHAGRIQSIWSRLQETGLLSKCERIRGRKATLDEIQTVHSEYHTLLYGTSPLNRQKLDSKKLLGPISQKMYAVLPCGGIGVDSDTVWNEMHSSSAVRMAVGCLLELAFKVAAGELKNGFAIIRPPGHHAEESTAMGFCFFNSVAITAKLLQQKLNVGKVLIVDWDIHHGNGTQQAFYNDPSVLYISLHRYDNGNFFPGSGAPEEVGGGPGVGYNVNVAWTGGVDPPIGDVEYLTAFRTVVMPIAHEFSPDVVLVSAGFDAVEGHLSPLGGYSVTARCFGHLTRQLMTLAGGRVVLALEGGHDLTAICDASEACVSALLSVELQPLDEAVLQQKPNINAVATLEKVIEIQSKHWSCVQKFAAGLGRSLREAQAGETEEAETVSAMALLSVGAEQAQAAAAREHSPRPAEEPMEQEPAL
Experimental: as §2

class IIa HDACs = test: as above; assay type: cell-based, human; settings: 1 μM, 5 hours, vs DMSO, moderated t-test, FIG. 4B-4C
Experimental: Cells were washed once with phosphate-buffered saline (PBS), harvested with CellstripperTM (Corning®), washed two additional times with PBS and snap frozen in liquid nitrogen. […] Proteins were precipitated using methanol/chloroform in Donovan et al., Elife 7:e38430 (2018). The precipitated protein was resuspended in 4 M Urea, 50 mM HEPES pH 7.4, followed by dilution to 1 M urea with the addition of 200 mM EPPS, pH 8. Proteins were first digested with LysC (1:50: enzyme:protein) for 12 hours at room temperature. The LysC digestion was diluted to 0.5 M Urea with 200 mM EPPS pH 8 followed by digestion with trypsin (1:50: enzyme:protein) for 6 hours at 37° C. Tandem mass tag (TMT) reagents (Thermo Fisher Scientific) were dissolved in anhydrous acetonitrile (ACN) according to manufacturer's instructions. Anhydrous ACN was added to each peptide sample to a final concentration of 30% v/v, and labeling was induced with the addition of TMT reagent to each sample at a ratio of 1:4 peptide:TMT label. The 11-plex labeling reactions were performed for 1.5 hours at room temperature and the reaction quenched by the addition of hydroxylamine to a final concentration of 0.3% for 15 minutes at room temperature. The sample channels were combined at a 1:1 ratio, desalted using C18 solid phase extraction cartridges (Waters®) and analyzed by LC-MS for channel ratio comparison. Samples were then combined using the adjusted volumes determined in the channel ratio analysis and dried down in a speed vacuum. The combined sample was then resuspended in 1% formic acid, and acidified (pH 2-3) before being subjected to desalting with C18 SPE (Sep-Pak®-, Waters®). […] Proteome Discoverer 2.2 (Thermo Fisher Scientific) was used for .RAW file processing and controlling peptide and protein level false discovery rates, assembling proteins from peptides, and protein quantification from peptides. […] TMT reporter ion intensities were measured using a 0.003 Da window around the theoretical m/z for each reporter ion in the MS3 scan. […]

HDAC8, sequence (Q9BY41 whole entry): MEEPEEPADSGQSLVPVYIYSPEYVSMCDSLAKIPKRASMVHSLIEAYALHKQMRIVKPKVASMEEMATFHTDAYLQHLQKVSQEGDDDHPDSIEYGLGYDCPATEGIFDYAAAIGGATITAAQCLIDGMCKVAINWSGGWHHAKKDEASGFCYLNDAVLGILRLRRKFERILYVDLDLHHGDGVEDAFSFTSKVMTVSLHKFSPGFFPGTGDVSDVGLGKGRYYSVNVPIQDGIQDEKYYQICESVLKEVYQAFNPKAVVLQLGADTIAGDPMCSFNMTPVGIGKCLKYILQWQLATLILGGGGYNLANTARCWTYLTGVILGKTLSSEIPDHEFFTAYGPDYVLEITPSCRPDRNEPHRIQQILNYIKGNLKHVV
HDAC6, sequence (Q9UBN7 whole entry): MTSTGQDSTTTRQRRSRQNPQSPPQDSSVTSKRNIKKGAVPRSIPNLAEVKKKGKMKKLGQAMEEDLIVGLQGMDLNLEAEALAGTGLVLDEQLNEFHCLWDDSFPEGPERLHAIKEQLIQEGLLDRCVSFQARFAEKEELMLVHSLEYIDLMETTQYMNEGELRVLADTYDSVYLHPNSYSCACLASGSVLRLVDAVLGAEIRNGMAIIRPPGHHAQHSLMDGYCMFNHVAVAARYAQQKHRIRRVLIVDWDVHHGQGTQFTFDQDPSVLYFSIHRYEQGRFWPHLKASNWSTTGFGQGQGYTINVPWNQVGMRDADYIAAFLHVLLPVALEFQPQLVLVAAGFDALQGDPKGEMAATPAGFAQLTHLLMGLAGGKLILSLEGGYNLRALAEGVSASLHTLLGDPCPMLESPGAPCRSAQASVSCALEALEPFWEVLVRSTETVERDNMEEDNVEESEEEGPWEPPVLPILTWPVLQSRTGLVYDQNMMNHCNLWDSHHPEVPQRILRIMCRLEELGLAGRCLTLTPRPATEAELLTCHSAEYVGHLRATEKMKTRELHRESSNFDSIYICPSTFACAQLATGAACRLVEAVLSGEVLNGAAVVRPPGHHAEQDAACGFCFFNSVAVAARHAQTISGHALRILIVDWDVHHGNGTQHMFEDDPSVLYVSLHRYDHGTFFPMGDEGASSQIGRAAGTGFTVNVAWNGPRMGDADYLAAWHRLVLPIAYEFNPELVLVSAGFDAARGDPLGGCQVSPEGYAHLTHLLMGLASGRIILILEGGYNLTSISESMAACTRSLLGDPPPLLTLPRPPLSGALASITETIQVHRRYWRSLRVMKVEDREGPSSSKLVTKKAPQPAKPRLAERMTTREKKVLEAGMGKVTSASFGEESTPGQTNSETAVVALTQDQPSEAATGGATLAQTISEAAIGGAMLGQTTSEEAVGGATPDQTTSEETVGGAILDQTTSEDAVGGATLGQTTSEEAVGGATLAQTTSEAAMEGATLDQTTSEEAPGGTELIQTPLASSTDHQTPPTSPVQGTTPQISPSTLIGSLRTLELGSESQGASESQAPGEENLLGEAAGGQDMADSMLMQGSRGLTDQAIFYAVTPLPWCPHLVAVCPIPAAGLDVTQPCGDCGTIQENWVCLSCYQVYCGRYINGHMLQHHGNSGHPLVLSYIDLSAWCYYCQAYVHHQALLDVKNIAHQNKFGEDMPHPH

| SMILES | inhibition of HDAC6 (HDAC6) | inhibition of HDAC8 (HDAC8) | protein expression level of HDAC4 (HDAC4) | protein expression level of HDAC5 (HDAC5) | class IIa HDAC levels (relative protein abundance) (class IIa HDACs) |
| --- | --- | --- | --- | --- | --- |
| O=C1CCC(N2C(=O)c3cccc(NCCCCCCN4CCC(CNC(=O)c5cccc(-c6noc(C(F)(F)F)n6)c5)(c5nc(-c6ccccc6)cs5)CC4)c3C2=O)C(=O)N1 (centres unmarked) [Compound 1] | did not inhibit | did not inhibit |  |  |  |
| CCN(CCNc1cccc2c1C(=O)N(C1CCC(=O)NC1=O)C2=O)C[C@@H](C)NC(=O)c1ccc(-c2noc(C(F)(F)F)n2)cc1 (stereo partly drawn) [Compound 16, N-((2R)-1-((2-((2-(2,6-dioxopiperidin-3-yl)-1,3-dioxoisoindolin-4-yl)amino)ethyl)(ethyl)amino)propan-2-yl)-4-(5-(trifluoromethyl)-1,2,4-oxadiazol-3-yl)benzamide] |  |  | reduction in protein expression level | reduction in protein expression level | significant reduction |
